According to patent publication US20230027059A1, “METHODS AND COMPOSITIONS FOR GENERATING HUMAN MIDBRAIN NEURAL PROGENITOR CELLS” (Trallhead Biosystems Inc., priority 2021, published 2023):

How the values were obtained:
[1] = tested on: stage 1 neural stem cells; assay: First 12-factor HD-DoE experiment, stage 2: additional 3 days after stage 1, gene expression modeled, with dynamic profile and factor criticality analysis; type: cell-based, human; conditions: for FOXA2 expression level in absence of the factor / LMX1A expression level in absence of the factor: stage 2 recipe, first experiment model; for FOXA2 expression level in absence of the factor: 10,000 with all factors; for LMX1A expression level in absence of the factor: 30,000 with all factors
Procedure: To develop the recipe for each stage, the impact of agonists and antagonists of multiple signaling pathways (referred to herein as “effectors”) on the expression of two sets of 53 pre-selected genes after a 3-day treatment was tested and modeled. These effectors are small molecules or proteins that are commonly used during stepwise differentiation of stem cells to specific fates. The choice of the effectors to test was based on current literature on neural induction in the midbrain region of the developing brain and differentiation of stem cells to neural progenitors. To test the effectors, experiments with at least 8 factors were designed that can assess the response of cells to 48 or more different combinations of effectors in a range of concentrations. To analyze the models, we focused on expression of genes expressed in the midbrain region, including OTX2, DMBX1, FOXA2, LMX1A, and on the absence of GB X2, which is a hindbrain marker. The impact of each effector on gene expression level is defined by a parameter called factor contribution that is calculated for each effector during the modeling. To further guide the differentiation of midbrain-committed neural stem cells to neural progenitor cells at stage 2, we performed an additional HD-DoE experiment. We thereby obtained additional gene regulatory models that were used for preparation of differentiation protocol. The basis of this was a 12-factor HD-DoE experiment with focus on initiation of differentiation of cells toward midbrain neural progenitor cells for an additional 3 days after termination of stage 1 treatment. Here, we focused on expression of LMX1A and FOXA2 in neural progenitor cells with low to zero expression of GBX2. LMX1A had significant high expression level in the model with value of 47888. Therefore, we used optimization setting for this gene to identify the positive factors. The factors in this experiment included SC79, MK2206, ZM336372, PD0325901, CHIR99021, A 83-01, TTNPB, AGN193109, GW3965, SR9243, Purmorphamine and GSI-XX. […] Therefore, we used dynamic profile analysis to adjust the recipe for optimized expression of both LMX1A and FOXA2 genes and minimum expression of GBX2 (FIG. 7). It was observed that even without addition of Purmorphamine, expression level of FOXA2 was at 5000, therefore inclusion of this effector is not essential, however it can improve expression of FOXA2. […] A 83-01 was another factor with opposite effect on FOXA2 and LMX1A that was included in the final recipe. […] To assess the impact of elimination of each validated factor, we used dynamic profile analysis and compared the expression level of genes of interest in absence of each finalized factor while others are present. […] In the stage 2 recipe, each of the six finalized factors were removed while the other five factors were present and the expression levels of FOXA2, LMX1A and GBX2 were assessed, compared to the levels in the presence of all factors. According to the first experiment model, the absence of TTNPB lead to a rise of GBX2 expression, while the value of FOXA2 and LMX1A reduced drastically from 10,000 to 0 and 30,000 to 15,000, respectively. The absence of A 83-01 reduced the expression of FOXA2 from 10,000 to 7000, however, as expected, the value of LMX1A increased from 30,000 to 40,000. […] According to the second experiment model, the absence of BMP7 and MK2206 both reduced the level of FOXA2 while increasing the value of LMX1A, with BMP7 as the main effector that led to 0 expression of FOXA2.

[2] = tested on: stage 1 neural stem cells; assay: Second 12-factor HD-DoE experiment, stage 2: hiPSCs in stage 1 media 3 days, then 96 factor combinations for 3 days, with dynamic profile and factor criticality analysis; type: cell-based, human; conditions: for FOXA2 expression level in absence of the factor / LMX1A expression level in absence of the factor: stage 2 recipe, second experiment model; for LMX1A expression level in absence of the factor: 4000 with all factors; for impact on expression of GBX2: stage 2, second 12-factor experiment, dynamic profile; for factor contribution: negative impact
Procedure: To test additional factors like FGF8 that is routinely used in midbrain differentiation protocols, we ran another 12-factor experiment consisting of LDN193189, BMP7, A 83-01, Activin A, Takinib, PD0325901, MK2206, FGF8b, AZD3147, MHY1485, GSI-XX and Yhhu 3792. Similar to the previous experiment, hiPSCs were treated with stage 1 media for 3 days and then treated with 96 conditions of combinations of the factors for an additional 3 days. When this model was optimized for maximum expression of FOXA2, BMP7 with factor contribution of 13.7 and MK2206 with 14.2 had the most impact on its expression followed by AZD 3147 with factor contribution of 10.9. […] Another difference was BMP7, which has a negative impact on LMX1A. However, the factor contribution is less than 10. Therefore, to evaluate the effect of interactions between the factors and the optimal condition for the expression of both FOXA2 and LMX1A, we used dynamic profile analysis (FIG. 10). […] To assess the impact of elimination of each validated factor, we used dynamic profile analysis and compared the expression level of genes of interest in absence of each finalized factor while others are present. […] In the stage 2 recipe, each of the six finalized factors were removed while the other five factors were present and the expression levels of FOXA2, LMX1A and GBX2 were assessed, compared to the levels in the presence of all factors. According to the first experiment model, the absence of TTNPB lead to a rise of GBX2 expression, while the value of FOXA2 and LMX1A reduced drastically from 10,000 to 0 and 30,000 to 15,000, respectively. The absence of A 83-01 reduced the expression of FOXA2 from 10,000 to 7000, however, as expected, the value of LMX1A increased from 30,000 to 40,000. […] According to the second experiment model, the absence of BMP7 and MK2206 both reduced the level of FOXA2 while increasing the value of LMX1A, with BMP7 as the main effector that led to 0 expression of FOXA2.

[3] = tested on: human pluripotent stem cells; assay: 13-factor HD-DoE experiment, stage 1: 3-day effector treatment, gene expression modeled, with dynamic profile and factor criticality analysis; type: cell-based; conditions: for LMX1A expression level in absence of the factor / FOXA2 expression level in absence of the factor / DMBX1 expression level in absence of the factor / OTX2 expression level in absence of the factor: stage 1 recipe, other four factors present; for LMX1A expression level in absence of the factor: 300 with all five factors; for FOXA2 expression level in absence of the factor: 600 with all five factors; for DMBX1 expression level in absence of the factor: 3000 with all five factors; for OTX2 expression level in absence of the factor: 12000 with all five factors
Text: This example utilizes a method of High-Dimensional Design of Experiments (HD-DoE), as previously described in Bukys et al. (2020) Iscience 23:101346. The method employs computerized design geometries to simultaneously test multiple process inputs and offers mathematical modeling of a deep effector/response space. The method allows for finding combinatorial signaling inputs that control a complex process, such as during cell differentiation.
It allows testing of multiple plausible critical process parameters, as such parameters impact output responses, such as gene expression. Because gene expression provides hallmark features of the phenotype of, for example, a human cell, the method can be applied to identify, and understand, which signaling pathways control cell fate. In the current example, the HD-DOE method was applied with the intent to find conditions for induction of midbrain neural progenitor-expressed genes, directly from the pluripotent stem cell state.
To develop the recipe for each stage, the impact of agonists and antagonists of multiple signaling pathways (referred to herein as “effectors”) on the expression of two sets of 53 pre-selected genes after a 3-day treatment was tested and modeled. These effectors are small molecules or proteins that are commonly used during stepwise differentiation of stem cells to specific fates. The choice of the effectors to test was based on current literature on neural induction in the midbrain region of the developing brain and differentiation of stem cells to neural progenitors.
To test the effectors, experiments with at least 8 factors were designed that can assess the response of cells to 48 or more different combinations of effectors in a range of concentrations. To analyze the models, we focused on expression of genes expressed in the midbrain region, including OTX2, DMBX1, FOXA2, LMX1A, and on the absence of GB X2, which is a hindbrain marker. The impact of each effector on gene expression level is defined by a parameter called factor contribution that is calculated for each effector during the modeling.
To identify the recipe of stage 1 of differentiation, cells were treated with various effectors for 3 days and the gene expression of cells was modeled. […] This model consisted of 13 factors including LDN193189, PD173074, BLU9931, Purmorphamine, SC79, MK2206, ZM336372, PD0325901, CHIR99021, XAV939, UCLA-gp130, Tofacitinib and GO 6983.
LDN193189 and CHIR99021 are common in both optimization settings and the rest of the factors except Purmorphamine, have a factor contribution less than 10. Therefore, we focused on impact of addition of Purmorphamine to the original 4 effectors.
This assessment was done through dynamic profile analysis of the model with focus on expression of OTX2, DMBX1, LMX1A and FOXA2 (FIG. 3).
To assess the impact of elimination of each validated factor, we used dynamic profile analysis and compared the expression level of genes of interest in absence of each finalized factor while others are present.
In the stage 1 recipe, each of the five finalized factors were removed while the other four factors were present and the expression levels of OTX2, DMBX1, FOXA2 and LMX1A was assessed compared to the levels in the presence of all five factors (FIGS. 11A-B). […] Expression level of DMBX1 increased in absence of LDN193189, however values of OTX2, FOXA2 and LMX1A decreased.

[4] = stage 2, first 12-factor experiment, dynamic profile
[5] = dynamic profile, Purmorphamine added to the original 4 effectors

## Cc1cccc(-c2nn(C(=S)Nc3ccccc3)cc2-c2ccnc3ccccc23)n1 [A 83-01]
[1]
  FOXA2 expression level in absence of the factor: 7000
  LMX1A expression level in absence of the factor: 40,000

## C[C@H]1COCCN1c1cc(C2(S(=O)(=O)C3CC3)CC2)nc(-c2ccc(NC(=S)NCCO)cc2)n1 [AZD 3147]
[2]
  FOXA2 expression level in absence of the factor: almost no effect
  LMX1A expression level in absence of the factor: 2000

## Cc1c[nH]c(-c2cnc(NCCNc3ccc(C#N)cn3)nc2-c2ccc(Cl)cc2Cl)n1 [CHIR99021]
[1]; [4]
  impact on expression of GBX2: increases
  impact on expression of LMX1A: positive impacts
[3]
  LMX1A expression level in absence of the factor: reduced
  FOXA2 expression level in absence of the factor: reduced
  DMBX1 expression level in absence of the factor: reduced
  OTX2 expression level in absence of the factor: reduced

## O=C(O)Cc1cccc(OCCCN(Cc2cccc(C(F)(F)F)c2Cl)CC(c2ccccc2)c2ccccc2)c1 [GW3965]
[1]
  FOXA2 expression level in absence of the factor: 17,000
  LMX1A expression level in absence of the factor: 10,000

## c1ccc2c(-c3cnn4cc(-c5ccc(N6CCNCC6)cc5)cnc34)ccnc2c1 [LDN193189]
[3]
  LMX1A expression level in absence of the factor: decreased
  FOXA2 expression level in absence of the factor: decreased
  DMBX1 expression level in absence of the factor: increased
  OTX2 expression level in absence of the factor: decreased

## NC1(c2ccc(-c3nc4ccn5c(=O)[nH]nc5c4cc3-c3ccccc3)cc2)CCC1 [MK2206]
[2]
  impact on expression of GBX2: desirable impact
  FOXA2 expression level in absence of the factor: reduced
  LMX1A expression level in absence of the factor: increasing
[3]
  LMX1A expression level in absence of the factor: stayed the same
  FOXA2 expression level in absence of the factor: stayed the same
  DMBX1 expression level in absence of the factor: 1500
  OTX2 expression level in absence of the factor: 9500

## O=C(NOC[C@H](O)CO)c1ccc(F)c(F)c1Nc1ccc(I)cc1F [PD0325901]
[3]
  LMX1A expression level in absence of the factor: 500
  FOXA2 expression level in absence of the factor: 700
  DMBX1 expression level in absence of the factor: 900

## c1ccc2c(Oc3nc(Nc4ccc(N5CCOCC5)cc4)c4ncn(C5CCCCC5)c4n3)cccc2c1 [Purmorphamine]
[1]; dynamic profile analysis, stage 2
  expression level of FOXA2 without addition of the effector: 5000
[3]; [5]
  DMBX1 expression level: ~3000
  LMX1A expression level: ~450
  OTX2 expression level: ~11000
[3]
  LMX1A expression level in absence of the factor: beneficial
  FOXA2 expression level in absence of the factor: reduction
  DMBX1 expression level in absence of the factor: beneficial
  OTX2 expression level in absence of the factor: beneficial

## C/C(=C\c1ccc(C(=O)O)cc1)c1ccc2c(c1)C(C)(C)CCC2(C)C [TTNPB]
[1]
  FOXA2 expression level in absence of the factor: 0
  LMX1A expression level in absence of the factor: 15,000

## COc1cccc(Oc2cccc3nc(Nc4ccc(C(C)C)cc4)nc(N)c23)c1 [Yhhu 3792]
[2]
  impact on expression of GBX2: positive effect

## FGF8b
[2]; model optimized for maximum expression of FOXA2
  factor contribution: 12.8
[2]; model optimized for maximum expression of LMX1A
  factor contribution: 16.9

B1: BMP7 (protein, UniProt P18075 293-431, looked up)
Bone morphogenetic protein 7: STGSKQRSQNRSKTPKNQEALRMANVAENSSSDQRQACKKHELYVSFRDLGWQDWIIAPEGYAAYYCEGECAFPLNSYMNATNHAIVQTLVHFINPETVPKPCCAPTQLNAISVLYFDDSSNVILKKYRNMVVRACGCH
notes: BMP pathway agonist
[2]
  FOXA2 expression level in absence of the factor: 0
  LMX1A expression level in absence of the factor: increasing
